Laboratory results reported in patent publication US20080145431A1, “Medicinal Composition and Process for Producing the Same” (priority 2005, published 2008).
Like-named read-outs stand apart in the source and are kept apart here.

Columns and labels:
[1] = Saturation solubility in water; assay type: physicochemical
[2] = cited from earlier work

NS(=O)(=O)c1ccc(S(=O)(=O)Nc2cccc3c(Cl)c[nH]c23)cc1 [Drug A, N-(3-chloro-7-indolyl)-1,4-benzenedisulfonamide]
Solubility in water under substantially physiological conditions ([1]; pH 5 to 7): practically insoluble | solubility ([1]; water, process liquid temperature of 17° C.): ≤ 100 µg/mL

COc1ccc(Cl)cc1C(=O)NCCc1ccc(S(=O)(=O)NC(=O)NC2CCCCC2)cc1 [Glibenclamide]
Saturation solubility in water ([2]; 22° C.): 5.9 µg/mL | Saturation solubility in water ([2]; 37° C.): 9.9 µg/mL
